Experiments:
[1] = system: OVX rat model; assay: Bone mass restoration in OVX rat model (femoral DEXA); type: in vivo; details: subcutaneous 30 mg/kg/day for 28 days
Procedure: The purpose of this study is to determine whether an EP4 receptor selective agonist, and specifically 7-(2-(3-hydroxy-4-phenyl-butyl)-5-oxo-pyrrolidin-1-yl)-heptanoic acid, can restore bone mass in OVX rat model.
Sprague-Dawley […] rats were ovariectomized (OVX) at 3.5 months of age. Ten months after OVX, the rats were treated by subcutaneous injection with vehicle or 7-(2-(3-hydroxy-4-phenyl-butyl)-5-oxo-pyrrolidin-1-yl)-heptanoic acid at 30 mg/kg/day for 28 days. The rats were autopsied. The right femur from each rat was removed at autopsy and scanned using dual energy x-ray absorptiometry (DEXA, QDR 1000/W, Hologic Inc., Waltham, Mass.) equipped with “Regional High Resolution Scan” software (Hologic Inc., Waltham, Mass.). The scan field size was 5.08×1.902 cm, resolution is 0.0254×0.0127 cm and the scan speed was 7.25 mm/second. The femoral scan images were analyzed. Bone mineral content (BMC) and bone mineral density (BMD) of whole femora (WF), distal femoral metaphysis (DFM), and femoral shaft (FS) were determined according to the method described in H. Z. Ke et al., Droloxifene, a New Estrogen Antagonist/Agonist, Prevents Bone Loss in Ovariectomized Rats. ENDOCRINOLOGY 136;2435-2441, 1995.

[2] = biological target: T1, EP3 receptor (Homo sapiens, UniProt P43115); assay: Assay for binding to prostaglandin E2 receptors (3H-PGE2 displacement), EP3; details: read-out: IC50 at EP3 receptor subtype
T1 construct: expressed in transfected cells
T1 sequence (P43115 1-390): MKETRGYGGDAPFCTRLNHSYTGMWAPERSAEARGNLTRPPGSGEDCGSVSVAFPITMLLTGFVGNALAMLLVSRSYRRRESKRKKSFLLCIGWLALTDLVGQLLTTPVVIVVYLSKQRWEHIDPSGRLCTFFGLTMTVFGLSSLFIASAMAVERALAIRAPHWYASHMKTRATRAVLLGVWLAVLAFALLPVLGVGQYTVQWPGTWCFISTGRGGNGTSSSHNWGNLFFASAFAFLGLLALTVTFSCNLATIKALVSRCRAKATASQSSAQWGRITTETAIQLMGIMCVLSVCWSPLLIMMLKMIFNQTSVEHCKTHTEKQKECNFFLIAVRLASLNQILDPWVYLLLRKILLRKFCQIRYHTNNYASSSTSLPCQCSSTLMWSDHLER
Procedure: (§1) Membrane Preparation: All operations are performed at 4° C. Transfected cells expressing prostagiandin E2 type 1 receptors (EP1), type 2 (EP2), type 3 (EP3) or type 4 (EP4) receptors are harvested and suspended to 2 million cells per ml in Buffer A [50 mM Tris-HCl (pH 7.4), 10 mM MgCl2, 1 mM EDTA, 1 mM Pefabloc peptide, (Boehringer Mannheim Corp., Indianapolis, Ind.), 10 uM Phosporamidon peptide, (Sigma, St. Louis, Mo.), 1 uM pepstatin A peptide, (Sigma, St. Louis, Mo.), 10 uM elastatinal peptide, (Sigma, St. Louis, Mo.), 100 uM antipain peptide, (Sigma, St. Louis, Mo.)]. The cells are lysed by sonification with a Branson Sonifier (Model #250, Branson Ultrasonics Corporation, Danbury, Conn.) in 2 fifteen second bursts. Unlysed cells and debris are removed by centrifugation at 100×g for 10 min. […] Pelleted membranes are resuspended to 3-10 mg of protein per ml of Buffer A, the protein concentration being determined by the method of Bradford [Bradford, M., Anal. Biochem., 72, 248 (1976)]. […]
(§2) Binding Assay: Frozen membranes prepared as above are thawed and diluted to 0.5 mg/ml (for rat EP2) or 0.3 mg/ml (for rat EP4) in Buffer A above. […] To determine the amount of ^3H-prostaglandin bound to the membranes, the dried filters are placed into plastic bags with scintillation fluid and counted in a LKB 1205 Betaplate reader (Wallac, Gaithersburg, Md.). […]

[3] = biological target: T2, EP2 receptor (Rattus norvegicus, UniProt Q62928); assay: Assay for binding to prostaglandin E2 receptors (3H-PGE2 displacement), EP2; details: read-out: IC50 at EP2 receptor subtype
T2 construct: expressed in transfected cells
Procedure: as §1, §2

[4] = biological target: T3, EP1 receptor (Homo sapiens, UniProt P34995); assay: Assay for binding to prostaglandin E2 receptors (3H-PGE2 displacement), EP1; details: read-out: IC50 at EP1 receptor subtype
T3 construct: expressed in transfected cells
T3 sequence (P34995 1-402): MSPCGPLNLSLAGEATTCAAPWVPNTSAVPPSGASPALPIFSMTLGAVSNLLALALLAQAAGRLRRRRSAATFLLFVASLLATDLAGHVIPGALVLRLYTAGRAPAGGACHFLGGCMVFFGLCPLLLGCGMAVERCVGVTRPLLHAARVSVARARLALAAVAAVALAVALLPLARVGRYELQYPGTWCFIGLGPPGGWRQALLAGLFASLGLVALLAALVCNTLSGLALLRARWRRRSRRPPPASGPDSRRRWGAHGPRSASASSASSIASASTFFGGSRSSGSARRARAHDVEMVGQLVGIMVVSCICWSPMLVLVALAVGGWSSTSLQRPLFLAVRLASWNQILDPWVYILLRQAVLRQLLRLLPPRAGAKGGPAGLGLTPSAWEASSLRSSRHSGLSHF
Procedure: as §1, §2

[5] = biological target: T4, EP4 receptor (Rattus norvegicus, UniProt P43114); assay: Assay for binding to prostaglandin E2 receptors (3H-PGE2 displacement), EP4
T4 construct: expressed in transfected cells
Procedure: as §1, §2

[6] = OVX rats, compared with OVX rats treated with vehicle

T4 sequence (P43114 whole entry): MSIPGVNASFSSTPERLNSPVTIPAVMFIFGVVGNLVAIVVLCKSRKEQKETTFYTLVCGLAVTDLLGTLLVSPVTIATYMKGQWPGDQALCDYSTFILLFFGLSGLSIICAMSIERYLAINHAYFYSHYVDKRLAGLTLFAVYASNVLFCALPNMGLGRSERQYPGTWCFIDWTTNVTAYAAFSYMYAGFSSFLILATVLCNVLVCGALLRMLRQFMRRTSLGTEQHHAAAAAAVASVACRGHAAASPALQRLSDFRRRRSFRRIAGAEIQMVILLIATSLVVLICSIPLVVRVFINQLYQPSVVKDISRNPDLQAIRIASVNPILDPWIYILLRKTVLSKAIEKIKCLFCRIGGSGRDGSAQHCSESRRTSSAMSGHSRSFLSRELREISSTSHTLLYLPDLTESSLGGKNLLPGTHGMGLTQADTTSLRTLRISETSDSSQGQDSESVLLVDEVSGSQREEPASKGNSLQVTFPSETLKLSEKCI
T2 sequence (Q62928 whole entry): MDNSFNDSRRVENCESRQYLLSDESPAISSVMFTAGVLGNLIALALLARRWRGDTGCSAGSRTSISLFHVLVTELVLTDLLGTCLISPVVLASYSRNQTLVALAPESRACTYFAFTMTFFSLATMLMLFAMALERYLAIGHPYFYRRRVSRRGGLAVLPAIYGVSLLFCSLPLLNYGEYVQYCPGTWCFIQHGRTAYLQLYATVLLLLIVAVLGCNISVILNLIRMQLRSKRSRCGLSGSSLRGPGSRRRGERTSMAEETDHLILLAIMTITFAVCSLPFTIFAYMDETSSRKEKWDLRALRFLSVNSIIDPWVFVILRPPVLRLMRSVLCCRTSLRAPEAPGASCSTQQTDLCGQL

O=C(O)CCCCCCN1C(=O)CCC1CCC(O)Cc1ccccc1 (stereo not drawn) [7-(2-(3-hydroxy-4-phenyl-butyl)-5-oxo-pyrrolidin-1-yl)-heptanoic acid]
PGE2-like side effects ([1]; OVX rats): No PGE2-like side effects were seen
distal femoral BMC increased [1, 6]: 8%
distal femoral BMD increased [1, 6]: 8%
femoral shaft BMC increased [1, 6]: 20%
femoral shaft BMD increased [1, 6]: 18%
total femoral BMC increased [1, 6]: 17%
total femoral BMD increased [1, 6]: 13%
bone formation and bone restoration in established osteopenic OVX rats [1]: stimulates bone formation and restores bone
IC50 [2]: > 3.2 µM
IC50 [3]: > 3.2 µM
IC50 [4]: > 3.2 µM
IC50 [5]: 0.016 µM

— US6642266B2, “EP4 receptor selective agonists in the treatment of osteoporosis” (Pfizer Inc., priority 1999, dated 2003)
